Experimental data reported in ChEMBL document CHEMBL5030546, “Synthesis of thiocolchicine amine derivatives and evaluation of their antiproliferative activity” (Bioorg Med Chem Lett, 2021).
pIC50: −log10 of the molar value.

Experiments:
MCF7 = test: cells; assay type: functional, cell-based; details: Homo sapiens, MCF7, 72 h
Description: Antiproliferative activity against human MCF7 cells assessed as inhibition of cell proliferation incubated for 72 hrs by SRB assay

cells = assay type: functional, cell-based; details: Homo sapiens, LoVo/DX, 72 h
Description: Antiproliferative activity against human Lovo/DX cells assessed as inhibition of cell proliferation incubated for 72 hrs by SRB assay

LoVo = test: cells; assay type: functional, cell-based; details: Homo sapiens, 72 h
Description: Antiproliferative activity against human LoVo cells assessed as inhibition of cell proliferation incubated for 72 hrs by SRB assay

A549 = test: cells; assay type: functional, cell-based; details: Homo sapiens, A549, 72 h
Description: Antiproliferative activity against human A549 cells assessed as inhibition of cell proliferation incubated for 72 hrs by SRB assay

[1] = Resistance index, ratio of IC50 for human LoVo/DX cells to IC50 for human LoVo cells; assay type: functional
BALB/3T3 = test: Cytotoxicity against mouse BALB/3T3 cells assessed as reduction in cell viability incubated for 72 hrs by SRB assay; assay type: ADME, cell-based; details: BALB/3T3, 72 h
[2] = Selectivity index, ratio of IC50 for mouse BALB/3T3 cells to IC50 for human LoVo/DX cells; assay type: toxicity; details: BALB/3T3 cells versus LoVo/DX cells, read-out: Ratio IC50
[3] = Selectivity index, ratio of IC50 for mouse BALB/3T3 cells to IC50 for human A549 cells; assay type: toxicity; details: BALB/3T3 cells versus A549 cells, read-out: Ratio IC50
[4] = Selectivity index, ratio of IC50 for mouse BALB/3T3 cells to IC50 for human MCF7 cells; assay type: toxicity; details: BALB/3T3 cells versus MCF7 cells, read-out: Ratio IC50
[5] = Selectivity index, ratio of IC50 for mouse BALB/3T3 cells to IC50 for human LoVo cells; assay type: toxicity; details: BALB/3T3 cells versus LoVo cells, read-out: Ratio IC50

pIC50 (MCF7)	pIC50 (cells)	pIC50 (LoVo)	pIC50 (A549)	Structure (SMILES)	Ratio IC50 [1]	pIC50 (BALB/3T3)	selectivity ratio [2]	selectivity ratio [3]	selectivity ratio [4]	selectivity ratio [5]
7.95	7.48	8.12	8.02	COc1cc2c(c(OC)c1OC)-c1ccc(SC)c(=O)cc1[C@@H](NCc1ccc(F)cc1)CC2	4.4	7.93				
7.75	7.15	7.92	7.96	CCCC(C)CN[C@H]1CCc2cc(OC)c(OC)c(OC)c2-c2ccc(SC)c(=O)cc21 (stereo partly specified)	5.8	7.11				
8.01	7.25	8.11	7.96	COc1cc2c(c(OC)c1OC)-c1ccc(SC)c(=O)cc1[C@@H](NCc1ccncc1)CC2	7.2	7.96				
7.99	7.38	8.03	8.03	COc1cc2c(c(OC)c1OC)-c1ccc(SC)c(=O)cc1[C@@H](NCc1ccccc1O)CC2	4.5	8.06				
7.03	7.11	7.28	7.05	CCCCCN[C@H]1CCc2cc(OC)c(OC)c(OC)c2-c2ccc(SC)c(=O)cc21	1.5	7.00				
8.09	7.07	7.27	8.15	COc1cc(CN[C@H]2CCc3cc(OC)c(OC)c(OC)c3-c3ccc(SC)c(=O)cc32)ccc1O	1.8	6.41	4.5	54.2	46.9	7.2
7.91	7.75	8.06	7.96	CCCCN[C@H]1CCc2cc(OC)c(OC)c(OC)c2-c2ccc(SC)c(=O)cc21	2	7.93				
7.99	7.16	8.06	7.97	COc1ccc(CN[C@H]2CCc3cc(OC)c(OC)c(OC)c3-c3ccc(SC)c(=O)cc32)cc1O	7.9	7.97				
7.13	7.19	7.43	7.15	COc1cc2c(c(OC)c1OC)-c1ccc(SC)c(=O)cc1[C@@H](NCc1ccc(Cl)cc1)CC2	1.8	7.05				
7.07	6.63	7.14	6.99	COc1cc2c(c(OC)c1OC)-c1ccc(SC)c(=O)cc1[C@@H](NCc1ccc(I)cc1)CC2	3.2	6.92				
7.94	7.17	7.97	7.97	COc1cc2c(c(OC)c1OC)-c1ccc(SC)c(=O)cc1[C@@H](NCCc1ccccc1)CC2	6.2	7.21				
7.95	7.99	8.07	7.98	COc1cc2c(c(OC)c1OC)-c1ccc(SC)c(=O)cc1[C@@H](NCC(C)C)CC2	1.2	7.96				
7.99	7.86	8.10	8.02	COc1cc2c(c(OC)c1OC)-c1ccc(SC)c(=O)cc1[C@@H](NCc1ccccc1)CC2	1.8	8.01				
7.92	7.51	8.07	7.94	CCCN[C@H]1CCc2cc(OC)c(OC)c(OC)c2-c2ccc(SC)c(=O)cc21	3.7	7.84				
6.96	7.14	7.08	6.98	CCCCCCN[C@H]1CCc2cc(OC)c(OC)c(OC)c2-c2ccc(SC)c(=O)cc21	0.9	6.97				
5.95	6.16	6.04	6.00	CCCCCCCCN[C@H]1CCc2cc(OC)c(OC)c(OC)c2-c2ccc(SC)c(=O)cc21	0.8	5.98				
7.92	8.03	8.08	7.88	COc1cc2c(c(OC)c1OC)-c1ccc(SC)c(=O)cc1[C@@H](NCCC(C)C)CC2	1	7.88				
6.99	6.68	7.10	7.02	COc1cc2c(c(OC)c1OC)-c1ccc(SC)c(=O)cc1[C@@H](NC/C=C/c1ccccc1)CC2	2.7	7.01				
8.11	6.40	7.55	7.33	COc1cc2c(c(OC)c1OC)-c1ccc(SC)c(=O)cc1[C@@H](NCc1cccc(CN[C@H]3CCc4cc(OC)c(OC)c(OC)c4-c4ccc(SC)c(=O)cc43)n1)CC2	14.3	7.30				
7.00	7.28	7.32	7.08	COc1cc2c(c(OC)c1OC)-c1ccc(SC)c(=O)cc1[C@@H](NCc1ccc(C)cc1)CC2	1.1	7.07				
6.14	5.70	6.34	6.82	CCCCCCCCCCCCN[C@H]1CCc2cc(OC)c(OC)c(OC)c2-c2ccc(SC)c(=O)cc21	4.4	5.97				
6.84	5.40	7.15	6.83	COc1cccc2c1C(=O)c1c(O)c3c(c(O)c1C2=O)C[C@@](O)(C(=O)CO)C[C@@H]3O[C@H]1C[C@H](N)[C@H](O)[C@H](C)O1 [DOXORUBICIN]	56	6.50				

Structure (SMILES)	pIC50 (MCF7)	pIC50 (cells)	pIC50 (LoVo)	pIC50 (A549)	Ratio IC50 [1]	pIC50 (BALB/3T3)	selectivity ratio [2]	selectivity ratio [3]	selectivity ratio [4]	selectivity ratio [5]
CCN[C@H]1CCc2cc(OC)c(OC)c(OC)c2-c2ccc(SC)c(=O)cc21	7.99	7.26	8.19	7.97	8.5	7.99				
COc1cc2c(c(OC)c1OC)-c1ccc(OC)c(=O)cc1[C@@H](NC(C)=O)CC2 [COLCHICINE]		6.01	7.90	7.71		7.08				
